Measured values reported in PMC3478977, “Enabling structure-based drug design of Tyk2 through co-crystallization with a stabilizing aminoindazole inhibitor” (BMC Structural Biology, 2012).

Assays:
[1] = target: T1, Jak3 (Homo sapiens, UniProt P52333); assay: trFRET kinase activity assay, Jak3; type: biochemical; conditions: 1 μM ATP, mean and standard error; read-out: IC50, inhibition of Jak3 enzyme activity
T1 construct: purchased Upstate/Millipore #14–629
T1 sequence (P52333 1-1124): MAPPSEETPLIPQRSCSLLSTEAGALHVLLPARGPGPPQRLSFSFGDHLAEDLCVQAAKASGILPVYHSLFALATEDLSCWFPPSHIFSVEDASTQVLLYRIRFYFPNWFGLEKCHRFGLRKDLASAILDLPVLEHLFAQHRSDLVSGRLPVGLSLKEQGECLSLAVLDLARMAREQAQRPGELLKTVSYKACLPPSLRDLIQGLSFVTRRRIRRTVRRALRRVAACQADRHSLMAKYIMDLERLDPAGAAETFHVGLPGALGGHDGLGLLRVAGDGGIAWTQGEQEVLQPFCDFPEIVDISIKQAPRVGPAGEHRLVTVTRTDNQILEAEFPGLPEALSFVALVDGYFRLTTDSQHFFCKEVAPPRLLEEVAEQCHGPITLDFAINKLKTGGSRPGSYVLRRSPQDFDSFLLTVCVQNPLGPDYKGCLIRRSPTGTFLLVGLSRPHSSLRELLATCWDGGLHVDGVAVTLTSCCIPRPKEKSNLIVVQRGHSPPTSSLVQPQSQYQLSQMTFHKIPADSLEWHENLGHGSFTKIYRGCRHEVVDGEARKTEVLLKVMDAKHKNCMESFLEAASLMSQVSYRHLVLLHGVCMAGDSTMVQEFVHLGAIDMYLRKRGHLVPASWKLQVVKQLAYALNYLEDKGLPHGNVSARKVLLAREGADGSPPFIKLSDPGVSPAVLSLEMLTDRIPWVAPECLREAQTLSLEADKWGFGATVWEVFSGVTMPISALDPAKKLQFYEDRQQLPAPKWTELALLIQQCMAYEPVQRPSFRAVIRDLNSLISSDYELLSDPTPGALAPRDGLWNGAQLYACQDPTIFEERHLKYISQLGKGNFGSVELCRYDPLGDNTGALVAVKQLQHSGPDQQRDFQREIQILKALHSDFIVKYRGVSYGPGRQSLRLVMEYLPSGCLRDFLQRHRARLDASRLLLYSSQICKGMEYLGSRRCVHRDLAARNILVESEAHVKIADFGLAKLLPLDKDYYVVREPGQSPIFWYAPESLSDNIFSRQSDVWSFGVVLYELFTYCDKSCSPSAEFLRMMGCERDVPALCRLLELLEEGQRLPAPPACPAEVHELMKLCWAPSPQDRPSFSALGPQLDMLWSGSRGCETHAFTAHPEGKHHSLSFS
Protocol: (§1) After 60 min incubation at room temperature, the reaction was quenched by addition of EDTA (final conc. 100 μM) and developed by addition of revelation reagents (final approximate concentrations: 30 mM HEPES pH 7.0, 0.06% BSA, 0.006% Tween-20, 0.24 M KF, 80 ng/mL PT66K (europium-labelled anti-phosphotyrosine antibody, cat #61T66KLB, Cisbio, Bedford, MA) and 3.12 μg/mL SAXL (Phycolink streptavidin-allophycocyanin acceptor, cat #PJ25S, Prozyme, San Leandro, CA)). The developed reaction was incubated in the dark either at 4°C overnight or at room temperature for ~1 h, then read with a time-resolved fluorescence detector (Rubystar, BMG Labtech) using a 337 nm laser for excitation and emission wavelengths of 620 nm and 665 nm. Within the linear range of the assay, this signal is directly related to phosphorylated product and was used to calculate IC50 values. Typically, seven-point inhibitor dilutions (5-fold; from 50 μM to 0.0032 μM) were used. IC50 values were calculated by fitting the following equation: […]
(§2) where [I] is total inhibitor concentration, Y is the percentage of activity (relative to that seen in no-inhibitor control) at a given inhibitor concentration, and Ymax is the maximum activity generated in the absence of inhibitor.
(§3) Purified Jak2 and Jak3 were purchased from Upstate/Millipore (cat numbers #14–640 and #14–629). […]

[2] = target: T2, Jak2 (Homo sapiens, UniProt O60674); assay: trFRET kinase activity assay, Jak2; type: biochemical; conditions: 1 μM ATP, mean and standard error; read-out: IC50, inhibition of Jak2 enzyme activity
T2 construct: purchased Upstate/Millipore #14–640
T2 sequence (O60674 808-1132 limits assumed): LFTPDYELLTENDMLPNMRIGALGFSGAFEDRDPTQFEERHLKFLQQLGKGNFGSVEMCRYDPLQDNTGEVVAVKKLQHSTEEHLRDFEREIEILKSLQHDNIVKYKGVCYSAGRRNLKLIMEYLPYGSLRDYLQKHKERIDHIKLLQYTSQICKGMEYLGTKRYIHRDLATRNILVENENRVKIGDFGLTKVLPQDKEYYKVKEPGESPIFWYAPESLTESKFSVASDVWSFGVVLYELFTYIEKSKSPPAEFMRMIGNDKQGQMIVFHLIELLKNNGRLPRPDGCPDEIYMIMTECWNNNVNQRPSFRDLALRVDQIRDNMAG
Protocol: as §1, §2, §3

[3] = target: T3, Jak1 (Homo sapiens, UniProt P23458); assay: trFRET kinase activity assay, Jak1; type: biochemical; conditions: Jak1 (845–1142) GST fusion, 1 μM ATP, mean and standard error; read-out: IC50, inhibition of Jak1 enzyme activity
T3 construct: Jak1 (residues 845–1142) was expressed in Sf9 cells; GST; made in house; host or cells: Sf9 insect cells
T3 sequence (P23458 845-1142, species assumed): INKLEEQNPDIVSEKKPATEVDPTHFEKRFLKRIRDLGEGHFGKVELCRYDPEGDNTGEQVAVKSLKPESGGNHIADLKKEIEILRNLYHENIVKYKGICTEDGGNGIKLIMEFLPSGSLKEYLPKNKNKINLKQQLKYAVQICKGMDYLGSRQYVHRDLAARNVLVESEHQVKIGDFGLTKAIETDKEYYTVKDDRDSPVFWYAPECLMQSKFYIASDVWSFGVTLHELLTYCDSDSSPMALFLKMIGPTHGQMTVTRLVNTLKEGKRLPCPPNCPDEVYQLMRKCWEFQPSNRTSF
Protocol: as §1, §2, §3

[4] = target: T4, human Tyk2 (Homo sapiens, UniProt P29597); assay: trFRET kinase activity assay, Tyk2; type: biochemical; conditions: human Tyk2 (880–1185), 1 μM ATP, mean and standard error; read-out: IC50, inhibition of Tyk2 enzyme activity
T4 construct: human Tyk2 enzyme (residues 880–1185); expressed in Sf9 cells; His tag (cleavable); TEV site per construct name His-Tev-huTyk2 (880–1185)-Flag) (N); Flag (C); made in house; host or cells: Sf9 insect cells
T4 sequence (P29597 880-1185): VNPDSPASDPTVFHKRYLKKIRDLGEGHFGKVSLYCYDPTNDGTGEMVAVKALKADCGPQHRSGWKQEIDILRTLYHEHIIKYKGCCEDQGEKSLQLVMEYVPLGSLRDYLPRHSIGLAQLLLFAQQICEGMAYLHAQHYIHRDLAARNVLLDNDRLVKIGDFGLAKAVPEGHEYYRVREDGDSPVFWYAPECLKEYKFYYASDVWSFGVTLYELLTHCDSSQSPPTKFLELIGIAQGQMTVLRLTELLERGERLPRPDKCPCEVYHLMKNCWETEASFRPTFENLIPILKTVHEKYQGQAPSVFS
Protocol: as §1, §2

[5] = target: T5, thermolysin (Bacillus thermoproteolyticus, UniProt P00800); assay: Digestion of BSA control by thermolysin; type: biochemical; conditions: BSA control digested by thermolysin in the same buffer
T5 sequence (P00800 233-548): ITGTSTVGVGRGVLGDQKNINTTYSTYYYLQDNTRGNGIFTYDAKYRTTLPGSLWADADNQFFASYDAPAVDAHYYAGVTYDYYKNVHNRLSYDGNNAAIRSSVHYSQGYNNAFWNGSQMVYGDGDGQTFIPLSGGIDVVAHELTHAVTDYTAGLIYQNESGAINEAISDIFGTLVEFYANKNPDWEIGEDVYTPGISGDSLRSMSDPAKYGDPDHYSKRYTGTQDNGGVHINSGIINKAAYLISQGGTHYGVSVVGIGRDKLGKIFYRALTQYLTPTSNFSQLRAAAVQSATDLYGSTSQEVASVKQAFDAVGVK

[6] = system: Mouse Tyk2 kinase domain (residues 870–1170; Asp1016Ala mutant); assay: Partial proteolysis of Tyk2 kinase domain by thermolysin with and without ligand; conditions: 30 μM compound, sum of ~27 and ~29 kDa peaks, 0 to 90 minutes, room temperature
Protocol: Mouse Tyk2 kinase domain (0.25 mg/mL, residues 870–1170; Asp1016Ala mutant) was incubated for 0 to 90 minutes with thermolysin (0.25 mg/mL) at room temperature in 50 mM HEPES pH 6.7, 150 mM NaCl, 5% glycerol, and 2.5 mM CaCl2 in the presence and absence of 30 μM Compound 2. EDTA (final conc 100 mM) was used as stop solution to quench the proteolysis reactions. Samples were separated by use of a Caliper LC90 system and the remaining substrate and product bands were quantitated. Intact (undigested) Tyk2 ran in this system at ~29 kDa. Addition of thermolysin yielded a partial digestion product of ~27 kDa (Additional file 1: Figure 1) within 5 minutes, which was unaffected by addition of Compound 2. Subsequent degradation products were strongly influenced by the presence of Compound 2 (Additional file 1: Figure S1). Therefore the sum of the intensities of the 29 and 27 kDa peaks was used as a measure of inhibitor-dependent resistance to thermolysin digestion. […]
In the absence of inhibitor, a 20 kDa fragment is generated after ~1-5 minutes and subsequently degraded. […] Quantitated values of Tyk2 peaks of ~27 and ~29 kDa during digestion with thermolysin, in the absence or presence of 30 μM Compound 2 were used to monitor overall degradation rates in Figure 2.

Row | SMILES | IC50 [1] | IC50 [2] | IC50 [3] | IC50 [4] | inhibition of thermolysin protease activity (BSA digestion) [5] | reduction of the rate of degradation of the enzyme to smaller forms (<27 kDa) by thermolysin [6]
1 | Nc1n[nH]c2ccc(-c3ccc(NS(=O)(=O)c4cccc(Cl)c4)cc3)cc12 [Compound 1, N-[4-(3-Amino-1H-indazol-5-yl)-phenyl]-3-chloro-benzenesulfonamide] | 42 ± 1 nM | 7 ± 2 nM | 5 ± 0.4 nM |  |  | 
2 | O=C(Nc1n[nH]c2ccc(-c3ccc(NS(=O)(=O)c4cccc(Cl)c4)cc3)cc12)c1ccco1 [Compound 2, Furan-2-carboxylic acid {5-[4-(3-chloro-benzenesulfonylamino)-phenyl]-1 H-indazol-3-yl}amide] | 41 ± 3 nM | 4 ± 1 nM | 10 ± 0.1 nM | < 3 nM | not an inhibitor of thermolysin protease activity | 13 fold
